Test results from ChEMBL document CHEMBL1201862, “PubChem BioAssay data set” (2004).
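Interpolation was linear, between the two tested concentrations surrounding the appropriate level; five concentrations were tested over 48 hours in 96-well plates. Here, GI50 denotes the concentration required for 50% inhibition of growth.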 Active and inactive are the calls of the source. Cut-off read from the data, not from the text of the source: active = GI50 up to about 1.1 µM and inactive = higher.

Columns and labels:
Assay in all cases: DTP human tumour cell line panel, 48 h
[1] = system: M19-MEL
[2] = system: KM-20L2
[3] = system: RXF 631
[4] = system: DMS-114
[5] = system: SNB-78
[6] = system: LXFL 529
[7] = system: HOP-18
[8] = system: XF498
[9] = system: DMS-273

Measured: GI50

NC(=O)c1ncn(C2OC(CO)C(O)C2O)c1O (stereo not drawn)
inactive: [1] > 100 µM | [2] 34.8 µM | [3] > 100 µM | [4] > 100 µM | [5] > 100 µM | [6] > 100 µM | [7] 53.7 µM | [8] > 100 µM

CCN(CC)C(=S)N/N=C(\C)c1ccccc1O
inactive: [1] 39.9 µM | [2] 21.4 µM | [9] 12.9 µM | [3] 35.2 µM | [4] 11.9 µM | [5] > 100 µM | [6] 13.5 µM | [7] 26.2 µM

Cn1cnc2[nH]c(=O)[nH]c(=S)c21
inactive: [1] > 100 µM | [2] > 100 µM | [9] > 100 µM | [3] > 100 µM | [4] > 100 µM | [5] > 100 µM | [6] > 100 µM | [7] > 100 µM | [8] > 100 µM

Nc1ccc(C(=O)N/C(=C\C=C\c2ccco2)c2nc3c4c(ccc3[nH]2)C(=O)c2ccccc2C4=O)cc1
inactive: [1] 79.6 µM | [2] 55.6 µM | [9] 29.5 µM | [3] 32.8 µM | [4] 18.5 µM | [5] 64.6 µM | [6] 49.1 µM | [7] 11.4 µM | [8] > 100 µM

CCCCCCCCCCCCOC(=N)N1CCOCC1
inactive: [1] 5.22 µM | [2] 3.43 µM | [9] 9.55 µM | [3] 8.18 µM | [4] 6.7 µM | [5] 6.59 µM | [6] 4.06 µM | [7] 2 µM | [8] 13.3 µM

O=C1C(c2ccccc2)=C(c2ccccc2)C(c2ccc(Cc3ccc(C4=C(c5ccccc5)C(=O)C(c5ccccc5)=C4c4ccccc4)cc3)cc2)=C1c1ccccc1
inactive: [1] > 100 µM | [2] > 100 µM | [9] > 100 µM | [4] > 100 µM | [5] > 100 µM | [7] > 100 µM | [8] > 100 µM

COC(=O)C(=O)C(C#N)c1ccc(Cl)c(Cl)c1 (stereo not drawn)
inactive: [1] > 100 µM | [2] > 100 µM | [9] > 100 µM | [3] > 100 µM | [5] > 100 µM | [6] > 100 µM | [8] > 100 µM

NC(CCCCN/C=C1/N=C(c2ccccc2)OC1=O)C(=O)O (stereo not drawn)
inactive: [1] > 100 µM | [2] > 100 µM | [9] > 100 µM | [4] > 100 µM | [5] > 100 µM | [6] > 100 µM | [8] > 100 µM

CC(C)c1cccc(C(C)C)c1NC(=O)C(=O)Cc1nc2ccc([N+](=O)[O-])cc2nc1O
inactive: [1] 80.9 µM | [2] 20.1 µM | [9] 44.4 µM | [3] 40.8 µM | [4] 10.5 µM | [6] 28.2 µM | [7] > 100 µM

CN(C)CCNC(=O)c1c2ccccc2cc2ccccc12
inactive: [1] 33.2 µM | [2] 37.7 µM | [9] 33 µM | [4] 53.1 µM | [5] 55.3 µM | [6] 26.2 µM | [7] > 100 µM | [8] 19.5 µM

NNC(=O)C(=O)N/N=C(\CCC(=O)Nc1ccc(Cl)cc1)Cc1nc2ccccc2s1
inactive: [1] 17.4 µM | [2] 45.5 µM | [9] 15.5 µM | [4] 19.1 µM | [5] 70.5 µM | [6] 26.4 µM | [7] 5.33 µM

O=C(N/C(=C\c1ccc([N+](=O)[O-])cc1)c1nc2c(O)nc(S)nc2[nH]1)c1ccccc1
inactive: [1] > 100 µM | [2] > 100 µM | [4] 77.3 µM | [5] > 100 µM | [6] 65.2 µM | [8] > 100 µM

O=C1CCCC2=C(N1)C(=O)C=CC2=O
inactive: [1] > 100 µM | [2] > 100 µM | [9] > 100 µM | [3] > 100 µM | [4] > 41.7 µM | [5] > 100 µM | [6] > 58.7 µM | [7] > 100 µM | [8] > 100 µM

c1ccc(C2=NN(c3ccccc3)C3(S2)SC(c2ccccc2)(c2ccccc2)c2ccccc23)cc1 (stereo not drawn)
inactive: [1] > 100 µM | [2] > 100 µM | [9] > 100 µM | [4] > 100 µM | [5] > 100 µM | [6] > 100 µM | [8] > 100 µM

CC(=O)NNc1nc(C)c(C(=O)/C=C/c2ccccc2Cl)s1
inactive: [1] > 100 µM | [2] > 100 µM | [9] > 100 µM | [3] > 100 µM | [4] > 100 µM | [5] > 100 µM | [7] > 100 µM

O=c1c2ccccc2c(=O)n2n1-c1cccc(c1)CSSCc1cccc-2c1
inactive: [1] > 10 µM | [2] > 100 µM | [9] > 10 µM | [3] > 10 µM | [4] > 10 µM | [5] 62.1 µM | [6] > 10 µM | [7] > 10 µM | [8] 62.2 µM

O=C(CC1C(=O)Nc2ccccc2[S+]1[O-])Nc1ccc(Cl)cc1 (stereo not drawn)
inactive: [2] > 100 µM | [9] > 100 µM | [5] 53.7 µM | [6] 91.8 µM
